From patent publication US20240366632A1, “METHODS FOR THE TREATMENT OF OCULAR ROSACEA” (INSTITUT NATIONAL DE LA SANTÉ ET DE LA RECHERCHE MÉDICALE, priority 2021, published 2024)

Legend:
[1] = tested on: corneal neovascularization induced by limbal deficiency; assay: rat model of CN induced by de-epithelialization and limbal resection; assay type: in vivo; conditions: for corneal edema / corneal neovascularization / corneal re-epithelialization / corneal thickness: rat, limbal deficiency
Excerpt: FIG. 1. Corneal de-epthelialization and limbal resection model treatment schemes.
Corneal neovascularization (CN) is a severe vision-threatening complication of OR.

[2] = tested on: GR/MR balance; assay: GR and MR expression in the cornea/limbus of rats with limbal deficiency; assay type: in vivo, rat
Excerpt: FIG. 4. Spironolactone up-regulates GR and the GR/MR balance in favor of GR pathway activation. The corneal de-epithelialization and limbal deficiency model induces a down regulation of GR genes at day 3 and 7, and is restored at day 14 when the cornea is healed. […] Spironolactone normalizes the GR/MR balance, favoring GR pathway activation.
Thus, spironolactone normalizes the GR/MR balance, favoring GR pathway activation.

[3] = tested on: genes regulated in the cornea and limbus; assay: full transcriptomic regulation in the cornea and limbus; assay type: in vivo, rat; conditions: cornea and limbus at 3 and 7 days
Excerpt: A full transcriptomic regulation induced in the cornea and limbus at 3 and 7 days after spironolactone systemic injection alone or with TA has been realized.

## COC(=O)[C@@H]1CC2=CC(=O)CC[C@]2(C)[C@@]23O[C@@H]2C[C@@]2(C)[C@@H](CC[C@@]24CCC(=O)O4)[C@H]13 [eplerenone, Pregn-4-ene-7,21-dicarboxylic acid, 9,11-epoxy-17-hydroxy-3-oxo-,γ-lactone, methyl ester, (7α, 11α, 17β)]
[1]
  corneal edema: decrease
  corneal neovascularization: inhibited
  corneal re-epithelialization: improved
  corneal thickness: decrease

## CC(=O)S[C@@H]1CC2=CC(=O)CC[C@]2(C)[C@H]2CC[C@@]3(C)[C@@H](CC[C@@]34CCC(=O)O4)[C@H]12 [spironolactone, 17-hydroxy-7α-mercapto-3-oxo-17α-pregn-4-ene-21-carboxylic acid γ-lactone acetate]
[1]; corneal sections at day 3
  infiltration of ED1 positive inflammatory cells in corneal lesions: reduced infiltration
  infiltration of IBA1-positive macrophages in corneal lesions: reduced infiltration
[1]
  corneal edema: decrease
  corneal neovascularization: inhibited
  corneal re-epithelialization: improved
  corneal thickness: decrease
[1]; spironolactone given with TA injection
  corneal re-epithelialization (corneal wound) delayed by the TA injection: improved
[2]; day 3 and 7
  GR expression in the cornea: up regulates and normalizes
[2]; rat, in vivo
  MR expression: does not influence
[3]
  genes up or down regulated: 75 genes
